We go through 1 compound from US20160184274A1, “Methods for inhibiting mesenchymal phenotype after epithelial-to-mesenchymal transition” (Fibrostatin, S.L., priority 2014, published 2016).

In this assay the test system is mesenchymal A549 spheroids. As to the kind of experiment: Spheroid viability / cell death by LDH activity in media. The format is cell-based, Human. The conditions noted are these: T12 10 μM for the last 2 days of 4-day EMT induction; FIG. 7B. On the procedure:
FIG. 7. T12 disrupts collagen IV network and reduces A549 mesenchymal spheroids viability. A549 spheroids were subjected to EMT induction with TGF-β and TNF-α during 4 days, and treated with T12 (10 μM) or maintained untreated (Cont) for the last 2 days. In A, spheroids were analyzed by immunofluorescence confocal microscopy with anti-α1α2 (IV) antibodies (COL4, white) and DAPI to visualize the cell nuclei (grey). In B, the culture media of the spheroids in A were used for assessing cell death by measuring LDH activity. […] Represented are Means (±SEM).
For some purposes, culture media were cleared by centrifugation (500×g, 10 min, room temperature) and LDH activity in supernatants determined with Lactate Dehydrogenase Activity Assay Kit (Sigma-Aldrich).
Three-dimensional spheroid cultures of A549 cells were obtained using a hanging droplet method (Kelm et al., 2003. Biotechnol. Bioeng. 83: 173-180.; Kumar et al., 2013. PLoS One. 8: e68597). Briefly, cells were grown to approximately 80% confluence on adherent tissue-culture flasks. Then cells were trypsinized, dispersed in DMEM/10% FBS, and counted using an automated cell counter (MOXI® Z, Orflo). The cell suspension was diluted to a 10^6 cells/mL-concentration, and 25 μl of the cell suspension were pipetted onto the underside of a sterile 10-cm tissue culture plate lid. Each lid was loaded with approximately 55 droplets. […]

For the compound `COc1ccc(-c2ccc(-c3cccc(C)c3)c(C)c2)c(CCC(=O)O)c1` [T12, 3-[4″-methoxy-3,2′-dimethyl-(1,1′;4′,1″)terphenyl-2″-yl] propionic acid], the “cell viability (LDH activity in culture media)” value is “reduced cell viability”.
